What is called IC50 is the concentration needed to halve the response being measured. Read a low IC50 as greater potency in that assay.

The target of this assay is T1, SYK (Homo sapiens, UniProt P43405).
T1 construct: The SYK kinase domain (residues 356-635) is amplified via PCR; made in house; host or cells: Sf9 insect cells (baculovirus, pFastBac1)
The assay can be described thus: SYK inhibition: in vitro assay of SYK-mediated phosphorylation of FAM-labeled substrate (Caliper LC-3000). Type of assay: biochemical. Particulars: SYK kinase domain (residues 356-635); 2.4 nM SYK and 45 μM ATP, 3 μM 5FAM-KKKKEEIYFFFG-NH2, RT 60 min, pH 7.3; pIC50 = −log(IC50), IC50 molar. As for the experimental part:
The ability of compounds to inhibit SYK activity may be assessed using a variety of methods, including in vitro and in vivo assays. The following in vitro assay measures a test compound's ability to inhibit SYK-mediated phosphorylation of a FAM-labeled SYK-specific substrate (5FAM-KKKKEEIYFFFG-NH2).
SYK protein is prepared from cDNA encoding human spleen tyrosine kinase and is expressed in insect cells using a baculovirus expression vector. The cDNA (IMAGE: 3542895) is purchased from Open Biosystems. The SYK kinase domain (residues 356-635) is amplified via PCR and cloned into plasmid pFastBacl (Invitrogen) at BamHI/XbaI sites. Recombinant plasmid encoding Met-Ala-Lys-SYK(356-635)-HHHHHH is sequenced and transformed into E. coli DH10Bac strain. The recombinant bacmid DNA is isolated and transfected into Sf9 insect cells. Recombinant virus is harvested 72 h after transfection. High titer viral stock is prepared by infecting Sf9 cells at a multiplicity of infection (MOI) of approximately 0.01. A suspension of Sf9 cells (10 L) is infected with recombinant virus (MOI=5) and is incubated in a Wave Bioreactor (GE-Healthcare) for 48 h. The cells are harvested and stored at −80° C.
To purify the expressed protein, the frozen Sf9 cells (10 L) are broken into small (<1 cm) particles and suspended in a lysis buffer (300 mL) containing 20 mM Tris (pH 7.6), 0.25 mM TCEP, 100 mM NaCl, 5% glycerol and a protease inhibitor. The suspension is stirred at RT until completely thawed, lysed an additional 2-4 min on a rotary blade homogenizer, and then centrifuged at 4200 g for 1 h. Following centrifugation, the supernatant is poured through cheese cloth and combined with a nickel chelating resin (Probond Resin™, Invitrogen) which is pre-equilibrated in a wash buffer containing 10 mM Tris (pH 7.6), 0.25 mM TCEP, 300 mM NaCl, 5% glycerol, and 20 mM imidazole. The mixture is agitated for 3 h in a cold room and then centrifuged at 900 g for 10 min. The resin is dispersed in wash buffer (50 mL), centrifuged for 10 min at 900 g, re-dispersed in a small amount of wash buffer (5 mL), and then pour into a disposable Poly-Prep chromatography column, through which wash buffer is passed by gravity until no protein is observed in coomassie buffer (about 120 mL of wash buffer). An elution buffer (30 mL) containing 10 mM HEPES (pH 7.4), 150 mM NaCl, 10% glycerol, 5 mM DTT, and 400 mM imidazole is used to elute the SYK protein from the resin. The eluate is concentrated (5 mL) and further purified on a Superdex 200 column (1.2 mL/min for 160 min, 10 mM HEPES (pH 7.4), 10 mM NaCl, 10 mM MgCl, 0.1 mM EDTA, and 0.25 mM TCEP). The chromatographed fractions are run on SDS-PAGE and the requisite fractions are pooled and concentrated. Final delivery buffer is 10 mM HEPES (pH 7.4), 10 mM Methione, 150 mM NaCl, 10% glycerol, 5 mM DTT.
SYK inhibition is determined using a black 384 well plate format in buffer containing 50 mM HEPES, 10 mM NaCl, 10 mM MgCl2, 0.2 mM EDTA, 0.01% EDA (Brij®35), 1 mM DTT, and 0.1 mg/ml BSA at pH 7.3. Each test compound is prepared in DMSO using 2-fold serial dilutions for 11 data points, which are added to the buffer so that each dilution contains 3% DMSO. To each well is added 2 μL of 3 μM SFAM-KKKKEEIYFFFG-NH2 (in buffer), 2 μL of diluted test compound (3% DMSO in buffer), and 2 μL of 2.4 nM SYK and 45 μM ATP (in buffer). The reaction mixture is incubated at RT for 60 min, and quenched by adding 50 mM Hepes, 30 mM EDTA, 0.1% Triton X-100 (pH 7.3). To quantify the fluorescent-labeled substrate and product following reaction, the test plate is loaded on a Caliper LC-3000, which measures percent of conversion by microfluidic-based separation. Corresponding IC50 values are calculated by non-linear curve fitting of the compound concentrations and percent of inhibition to the standard IC50 equation and reported as pIC50, i.e., −log(IC50), where IC50 is molar concentration.
For `CCn1cc(-c2nc(N[C@@H]3CCOC[C@@H]3N)c(F)c3c2C(=O)NC3)cn1` [Example 38, 6-((3R,4R)-3-Aminotetrahydro-2H-pyran-4-ylamino)-4-(1-ethyl-1H-pyrazol-4-yl)-7-fluoro-1H-pyrrolo[3,4-c]pyridin-3(2H)-one], half-maximal inhibition (IC50) required 20 nM. Then `Cc1c2sc(-c3nc(N[C@@H]4CCOC[C@@H]4N)c(F)c4c3C(=O)NC4)cc2nn1C` [Example 34, 6-((3R,4R)-3-Aminotetrahydro-2H-pyran-4-ylamino)-4-(2,3-dimethyl-2H-thieno[3,2-c]pyrazol-5-yl)-7-fluoro-1H-pyrrolo[3,4-c]pyridin-3(2H)-one], with 1.26 nM; and `Cc1cc(-c2nc(N[C@@H]3CCCC[C@@H]3N)c(F)c3c2C(=O)NC3)sn1` [Example 42, 6-((1R,2S)-2-Aminocyclohexylamino)-7-fluoro-4-(3-methylisothiazol-5-yl)-1H-pyaolo[3,4-c]pyridin-3(2H)-one], with 0.631 nM; and `N#Cc1ccc2sc(-c3nc(N[C@@H]4CCOC[C@@H]4N)c(F)c4c3C(=O)NC4)cc2c1` [Example 21, 2-(6-((3R,4R)-3-Aminotetrahydro-2H-pyran-4-ylamino)-7-fluoro-3-oxo-2,3-dihydro-1H-pyrrolo[3,4-c]pyridin-4-yl)benzo[b]thiophene-5-carbonitrile], with 0.316 nM. `N[C@H]1COCC[C@H]1Nc1nc(-c2cc3ccc(F)cc3s2)c2c(c1F)CNC2=O` [Example 19, 6-((3R,4R)-3-Aminotetrahydro-2H-pyran-4-ylamino)-7-fluoro-4-(6-fluorobenzo[b]thiophen-2-yl)-1H-pyrrolo[3,4-c]pyridin-3(2H)-one] gave an IC50 of 0.158 nM. `N[C@H]1COCC[C@H]1Nc1nc(-c2cc(C(F)F)ns2)c2c(c1F)CNC2=O` [Example 1, 6-((3R,4R)-3-Aminotetrahydro-2H-pyran-4-ylamino)-4-(3-(difluoromethyl)isothiazol-5-yl)-7-fluoro-1H-pyrrolo[3,4-c]pyridin-3(2H)-one] had an IC50 of 50.1 nM. The value for `C[C@H]1NC(=O)c2c(-c3cnn4ccc(F)cc34)nc(N[C@@H]3CCCC[C@@H]3N)c(F)c21` [Example 52, (R)-6-(((1R,2S)-2-Aminocyclohexyl)amino)-7-fluoro-4-(5-fluoropyrazolo[1,5-a]pyridin-3-yl)-1-methyl-1H-pyrrolo[3,4-c]pyridin-3(2H)-one] was 39.8 nM; that for `N#Cc1ccc2sc(-c3nc(N[C@@H]4CCCC[C@@H]4N)c(F)c4c3C(=O)NC4)cc2c1` [Example 22, 2-(6-((1R,2S)-2-Aminocyclohexylamino)-7-fluoro-3-oxo-2,3-dihydro-1H-pyrrolo[3,4-c]pyridin-4-yl)benzo[b]thiophene-5-carbonitrile] was 0.126 nM. The value for `N[C@H]1COCC[C@H]1Nc1nc(-c2cc3cc(F)ccc3s2)c2c(c1F)CNC2=O` [Example 7, 6-((3R,4R)-3-Aminotetrahydro-2H-pyran-4-ylamino)-7-fluoro-4-(5-fluorobenzo[b]thiophen-2-yl)-1H-pyrrolo[3,4-c]pyridin-3(2H)-one] was 0.2 nM; that for `Cn1ncc2sc(-c3nc(N[C@@H]4CCCC[C@@H]4N)c(F)c4c3C(=O)NC4)cc21` [Example 29, 6-((1R,2S)-2-Aminocyclohexylamino)-7-fluoro-4-(1-methyl-1H-thieno[3,2-c]pyrazol-5-yl)-1H-pyrrolo[3,4-c]pyridin-3(2H)-one] was 0.1 nM. Then `N[C@H]1COCC[C@H]1Nc1nc(-c2cc3cccnc3s2)c2c(c1F)CNC2=O` [Example 13, 6-((3R,4R)-3-Aminotetrahydro-2H-pyran-4-ylamino)-7-fluoro-4-(thieno[2,3-b]pyridin-2-yl)-1H-pyrrolo[3,4-c]pyridin-3(2H)-one], with 0.251 nM; and `N[C@H]1COCC[C@H]1Nc1nc(CCc2ccc(Cl)cc2)c2c(c1F)CNC2=O` [Example 49, 6-((3R,4R)-3-Aminotetrahydro-2H-pyran-4-ylamino)-4-(4-chlorophenethyl)-7-fluoro-1H-pyrrolo[3,4-c]pyridin-3(2H)-one], with 63.1 nM.

The molecule `CCc1cc(-c2nc(N[C@@H]3CCCC[C@@H]3N)c(F)c3c2C(=O)NC3)sn1` [Example 3, 6-((1R,2S)-2-Aminocyclohexylamino)-4-(3-ethylisothiazol-5-yl)-7-fluoro-1H-pyrrolo[3,4-c]pyridin-3 (2H)-one] gave an IC50 of 1.26 nM. Then `CCc1cc(-c2nc(N[C@@H]3CCOC[C@@H]3N)c(F)c3c2C(=O)NC3)sn1` [Example 2, 6-((3R,4R)-3-Aminotetrahydro-2H-pyran-4-ylamino)-4-(3-ethylisothiazol-5-yl)-7-fluoro-1H-pyrrolo[3,4-c]pyridin-3(2H)-one], with 3.98 nM; and `N[C@H]1COCC[C@H]1Nc1nc(-c2cc3c(F)cccc3s2)c2c(c1F)CNC2=O` [Example 23, 6-((3R,4R)-3-Aminotetrahydro-2H-pyran-4-ylamino)-7-fluoro-4-(4-fluorobenzo[b]thiophen-2-yl)-1H-pyrrolo[3,4-c]pyridin-3(2H)-one], with 0.398 nM; and `N[C@H]1COCC[C@H]1Nc1nc(-c2cc3ccncc3s2)c2c(c1F)CNC2=O` [Example 9, 6-((3R,4R)-3-Aminotetrahydro-2H-pyran-4-ylamino)-7-fluoro-4-(thieno[2,3-c]pyridin-2-yl)-1H-pyrrolo[3,4-c]pyridin-3(2H)-one], with 0.2 nM.

For `C[C@@H]1NC(=O)c2c(-c3cnn4ccc(F)cc34)nc(N[C@@H]3CCCC[C@@H]3N)c(F)c21` [Example 53, (S)-6-(((1R,2S)-2-Aminocyclohexyl)amino)-7-fluoro-4-(5-fluoropyrazolo[1,5-a]pyridin-3-yl)-1-methyl-1H-pyrrolo[3,4-c]pyridin-3(2H)-one], the IC50 was 398 nM.

The molecule `Cc1nn(C)c2sc(-c3nc(N[C@@H]4CCCC[C@@H]4N)c(F)c4c3C(=O)NC4)cc12` [Example 36, 6-((1R,2S)-2-Aminocyclohexylamino)-4-(1,3-dimethyl-1H-thieno[2,3-c]pyrazol-5-yl)-7-fluoro-1H-pyrrolo[3,4-c]pyridin-3(2H)-one] gave an IC50 of 0.126 nM. Then `N[C@H]1CCCC[C@H]1Nc1nc(/C=C/c2ccc(F)cc2)c2c(c1F)CNC2=O` [Example 45, 6-((1R,2S)-2-Aminocyclohexylamino)-7-fluoro-4-(4-fluorostyryl)-1H-pyrrolo[3,4-c]pyridin-3(2H)-one], with 2.51 nM. The value for `N[C@H]1COCC[C@H]1Nc1nc(-c2cc(F)cs2)c2c(c1F)CNC2=O` [Example 27, 6-((3R,4R)-3-Aminotetrahydro-2H-pyran-4-ylamino)-7-fluoro-4-(4-fluorothiophene-2-yl)-1H-pyrrolo[3,4-c]pyridin-3(2H)-one] was 5.01 nM; that for `Cc1nn(C)c2sc(-c3nc(N[C@@H]4CCOC[C@@H]4N)c(F)c4c3C(=O)NC4)cc12` [Example 37, 6-((3R,4R)-3-Aminotetrahydro-2H-pyran-4-ylamino)-4-(1,3-dimethyl-1H-thieno[2,3-c]pyrazol-5-yl)-7-fluoro-1H-pyrrolo[3,4-c]pyridin-3(2H)-one] was 0.316 nM.

For the origin of these results see patent publication US9663514B2 (Takeda Pharmaceutical Company Limited, priority 2011, dated 2017).
